Measurements reported in ChEMBL document CHEMBL5230142, “Natural spirocyclic alkaloids and polyphenols as multi target dementia leads” (Bioorg Med Chem, 2021).

Tests used:
[1] = test system: SH-SY5Y; experiment: Neuroprotective activity in human SH-SY5Y cells assessed as prevention of glyceraldehyde-induced neurite shortening at 1 uM incubated for 72 hrs by microsocopic analysis; format: functional
[2] = molecular target: T1, Acetylcholinesterase (Homo sapiens, UniProt P22303); experiment: Inhibition of AChE (unknown origin) using acetylthiocholine iodide as substrate preincubated for 20 mins by DTNB reagent based Ellman's method
[3] = molecular target: T1, Acetylcholinesterase; experiment: Inhibition of human recombinant AChE using acetylthiocholine chloride as substrate incubated for 20 mins by DTNB reagent based Ellman's method
[4] = test system: VSMC; experiment: Cytotoxicity against rat VSMC cells assessed as reduction in cell viability at 20 uM measured after 4 days; format: toxicity, cell-based; settings: 96 h, time 4 day
[5] = test system: VSMC; experiment: Cytotoxicity against rat VSMC cells assessed as reduction in cell viability at 5 uM measured after 4 days; format: toxicity, cell-based; settings: 96 h, time 4 day
[6] = test system: VSMC; experiment: Cytotoxicity against rat VSMC cells assessed as reduction in cell viability at 50 uM measured after 4 days; format: toxicity, cell-based; settings: 96 h, time 4 day
[7] = molecular target: Gamma-secretase; experiment: Inhibition of gamma-secretase (unknown origin); format: protein-complex assay, Homo sapiens
[8] = molecular target: Gamma-secretase (Homo sapiens) (UniProt Q96BI3+Q9NZ42+Q8WW43+P49768+Q92542+P49810); experiment: Binding affinity to his-tagged gamma-secretase (unknown origin) assessed as equilibrium constant by surface plasmon resonance analysis; format: protein-complex assay
[9] = molecular target: Amyloid-beta precursor protein (Homo sapiens) (UniProt P05067); experiment: Inhibition of amyloid beta (unknown origin) at 10 uM relative to control
[10] = test system: SH-SY5Y; experiment: Neuroprotective activity in human SH-SY5Y cells assessed as prevention of glyceraldehyde-induced neurite shortening at 10 uM incubated for 72 hrs by microsocopic analysis; format: functional
[11] = molecular target: T2, Melatonin receptor type 1B (Homo sapiens, UniProt P49286); experiment: Agonist activity at human melatonin MT2 receptor stably expressing in human HEK293 cells; format: cell-based
T2 sequence (P49286 whole entry): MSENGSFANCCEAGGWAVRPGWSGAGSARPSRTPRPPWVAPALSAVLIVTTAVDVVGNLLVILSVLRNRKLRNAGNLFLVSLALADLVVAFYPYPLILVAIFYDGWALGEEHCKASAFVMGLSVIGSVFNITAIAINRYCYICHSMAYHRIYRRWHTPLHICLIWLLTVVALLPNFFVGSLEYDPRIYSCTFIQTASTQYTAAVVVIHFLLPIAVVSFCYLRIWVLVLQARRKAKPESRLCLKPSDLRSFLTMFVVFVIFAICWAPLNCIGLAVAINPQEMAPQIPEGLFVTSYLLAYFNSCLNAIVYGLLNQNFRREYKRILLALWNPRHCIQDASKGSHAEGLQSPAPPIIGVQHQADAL

[12] = molecular target: Melatonin receptor type 1A (Homo sapiens, UniProt P48039); experiment: Agonist activity at human melatonin MT1 receptor stably expressing in human HEK293 cells; format: cell-based
[13] = molecular target: Beta-secretase 1 (Homo sapiens, UniProt P56817); experiment: Inhibition of human BACE1 (1 to 454 residues) using APP harboring Swedish Lys/Met mutant-derived peptide as substrate by FRET assay
[14] = Drug metabolism in RN rat assessed as epimerization ratio at 20 mg/kg, po; format: ADME, organism-based; settings: in vivo, read-out: Drug metabolism
[15] = Oral bioavailability in RN rat at 20 mg/kg; format: ADME, organism-based; settings: in vivo
[16] = molecular target: T3, 5-hydroxytryptamine receptor 1A (Homo sapiens, UniProt P08908); experiment: Agonist activity at 5HT1A (unknown origin) receptor
T3 sequence (P08908 whole entry): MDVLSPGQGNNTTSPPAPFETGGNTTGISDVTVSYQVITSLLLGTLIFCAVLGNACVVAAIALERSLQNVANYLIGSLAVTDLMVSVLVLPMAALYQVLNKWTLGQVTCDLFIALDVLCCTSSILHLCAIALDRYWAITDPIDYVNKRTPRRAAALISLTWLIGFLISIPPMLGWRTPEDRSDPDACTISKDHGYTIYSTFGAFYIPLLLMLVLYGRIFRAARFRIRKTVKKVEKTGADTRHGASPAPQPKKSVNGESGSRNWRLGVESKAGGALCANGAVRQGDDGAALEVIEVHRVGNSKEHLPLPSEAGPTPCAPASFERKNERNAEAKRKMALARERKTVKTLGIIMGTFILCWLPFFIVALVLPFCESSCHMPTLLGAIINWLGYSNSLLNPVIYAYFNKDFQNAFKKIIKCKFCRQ

[17] = molecular target: Amyloid-beta precursor protein (Homo sapiens) (UniProt P05067); experiment: Inhibition of amyloid beta (unknown origin) fibril formation at 20 uM incubated for 7 days by ThT fluorescence assay relative to control; settings: time 7.0 day
[18] = molecular target: Amyloid-beta precursor protein (Homo sapiens) (UniProt P05067); experiment: Inhibition of amyloid beta (unknown origin) assessed as reduction in fibril disaggregation at 20 uM incubated for 7 days by ThT fluorescence assay relative to control; settings: time 7.0 day
[19] = Cmax in mouse plasma at 250 mg/kg, po measured after 24 hrs; format: ADME, organism-based; set-up: dose 250 mg/kg, time 24 hrs, route po

Amyloid-beta precursor protein (Homo sapiens), sequence (P05067 whole entry): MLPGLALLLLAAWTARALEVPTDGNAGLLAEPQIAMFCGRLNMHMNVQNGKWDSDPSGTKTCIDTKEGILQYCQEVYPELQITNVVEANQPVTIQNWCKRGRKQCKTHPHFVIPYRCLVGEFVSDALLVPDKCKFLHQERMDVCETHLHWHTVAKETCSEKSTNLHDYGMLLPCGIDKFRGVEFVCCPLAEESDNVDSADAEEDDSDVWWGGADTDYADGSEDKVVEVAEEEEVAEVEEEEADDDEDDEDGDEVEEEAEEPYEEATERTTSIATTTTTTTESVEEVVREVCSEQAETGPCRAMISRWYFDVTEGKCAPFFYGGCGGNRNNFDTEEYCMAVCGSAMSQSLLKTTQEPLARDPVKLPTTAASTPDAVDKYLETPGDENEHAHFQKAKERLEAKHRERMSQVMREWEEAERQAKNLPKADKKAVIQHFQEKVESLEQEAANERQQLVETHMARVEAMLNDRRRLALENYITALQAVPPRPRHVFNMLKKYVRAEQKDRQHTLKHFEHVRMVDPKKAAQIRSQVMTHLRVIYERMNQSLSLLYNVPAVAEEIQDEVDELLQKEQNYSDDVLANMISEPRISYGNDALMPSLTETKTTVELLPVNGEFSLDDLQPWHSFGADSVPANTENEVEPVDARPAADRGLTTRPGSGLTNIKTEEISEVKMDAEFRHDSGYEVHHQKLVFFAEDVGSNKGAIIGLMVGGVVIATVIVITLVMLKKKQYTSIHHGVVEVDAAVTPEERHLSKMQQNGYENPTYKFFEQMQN
T1 sequence (P22303 whole entry): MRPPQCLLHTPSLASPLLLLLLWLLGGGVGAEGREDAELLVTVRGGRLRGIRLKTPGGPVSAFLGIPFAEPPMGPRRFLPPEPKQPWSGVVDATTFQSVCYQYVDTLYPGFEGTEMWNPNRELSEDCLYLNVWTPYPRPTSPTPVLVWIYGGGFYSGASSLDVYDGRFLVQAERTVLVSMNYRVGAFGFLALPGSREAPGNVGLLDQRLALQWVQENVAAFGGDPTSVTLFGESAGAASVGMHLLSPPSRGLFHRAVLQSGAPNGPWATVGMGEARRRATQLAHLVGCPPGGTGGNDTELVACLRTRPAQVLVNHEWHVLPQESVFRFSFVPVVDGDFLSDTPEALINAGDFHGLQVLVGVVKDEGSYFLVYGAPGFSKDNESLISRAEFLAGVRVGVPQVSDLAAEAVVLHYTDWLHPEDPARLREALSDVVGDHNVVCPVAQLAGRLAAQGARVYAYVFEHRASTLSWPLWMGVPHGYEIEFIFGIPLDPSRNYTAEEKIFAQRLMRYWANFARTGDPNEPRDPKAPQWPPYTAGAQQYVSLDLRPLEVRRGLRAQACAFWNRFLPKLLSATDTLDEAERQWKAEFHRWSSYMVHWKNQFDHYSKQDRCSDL
Beta-secretase 1, sequence (P56817 whole entry, the tested form may be a part): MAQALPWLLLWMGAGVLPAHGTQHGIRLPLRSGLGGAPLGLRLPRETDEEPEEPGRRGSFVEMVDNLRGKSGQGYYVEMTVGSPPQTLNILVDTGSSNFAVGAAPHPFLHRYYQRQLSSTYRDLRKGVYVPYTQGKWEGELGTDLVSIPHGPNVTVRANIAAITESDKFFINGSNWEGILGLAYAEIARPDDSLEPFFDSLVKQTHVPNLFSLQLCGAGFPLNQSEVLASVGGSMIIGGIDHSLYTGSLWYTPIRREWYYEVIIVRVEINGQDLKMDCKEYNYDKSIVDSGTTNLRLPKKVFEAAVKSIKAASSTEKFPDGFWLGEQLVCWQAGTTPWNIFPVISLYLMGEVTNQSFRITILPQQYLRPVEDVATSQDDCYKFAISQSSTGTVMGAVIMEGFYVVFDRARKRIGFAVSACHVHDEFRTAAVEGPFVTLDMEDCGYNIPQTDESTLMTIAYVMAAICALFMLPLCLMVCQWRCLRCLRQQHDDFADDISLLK
Melatonin receptor type 1A, sequence (P48039 whole entry, the tested form may be a part): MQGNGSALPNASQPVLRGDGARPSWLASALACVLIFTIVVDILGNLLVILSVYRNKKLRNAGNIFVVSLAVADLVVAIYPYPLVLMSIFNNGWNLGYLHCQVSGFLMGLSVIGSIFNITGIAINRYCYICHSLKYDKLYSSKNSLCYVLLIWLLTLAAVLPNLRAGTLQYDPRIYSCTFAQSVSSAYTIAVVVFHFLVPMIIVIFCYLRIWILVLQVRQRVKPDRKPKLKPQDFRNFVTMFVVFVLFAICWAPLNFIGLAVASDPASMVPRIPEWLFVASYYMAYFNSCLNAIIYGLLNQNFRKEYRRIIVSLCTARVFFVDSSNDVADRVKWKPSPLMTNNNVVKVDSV

COC(=O)[C@H]1C(=O)N2CC[C@]3(C(=O)Nc4ccccc43)[C@H]2C[C@@H]1c1ccc(-c2ccc(Cl)c(Cl)c2)o1
Activity [1]: 42%

C/C=C1/CN2CCc3c([nH]c4ccccc34)[C@@H]2CC1/C(=C\C(=O)OC)OC (stereo partly drawn)
IC50 [2]: 3.7 µM | IC50 [3]: 10.1 µM

CC[C@H]1CN2CC[C@]3(C(=O)Nc4ccccc43)C2C[C@@H]1/C(=C\OC)C(=O)OC (stereo partly drawn)
Activity [4]: 63% | Activity [5]: 25% | Activity [6]: 88%

CC(C)[C@@]1(NC(=O)[C@@H]2C[C@@H]3c4cccc5[nH]cc(c45)C[C@H]3N(C)C2)O[C@@]2(O)[C@@H]3CCCN3C(=O)[C@H](Cc3ccccc3)N2C1=O [DIHYDROERGOCRISTINE]
IC50 [7]: 25 µM | Ke [8]: 9.8 µM | inhibition [9]: 30%

COC(=O)[C@@H]1C(=O)N2CC[C@@]3(C(=O)Nc4ccccc43)[C@@H]2C[C@H]1c1ccc(-c2cccc(Cl)c2)o1
Activity [10]: 20%

COC(=O)[C@@H]1C(=O)N2CC[C@@]3(C(=O)Nc4ccccc43)[C@@H]2C[C@H]1c1ccc(-c2ccc(Cl)c(Cl)c2)o1
Activity [10]: 61%

Oc1cc(O)c2c(c1)O[C@H](c1ccc(O)c(O)c1)[C@@H](O)C2 [CIANIDANOL]
IC50 [11]: 47.3 µM | IC50 [12]: 25.8 µM

CC#Cc1cncc(-c2ccc3c(c2)[C@@]2(CO3)N=C(N)C[C@H]2C(F)(F)F)c1
IC50 [13]: 0.115 µM

CC[C@H]1CN2CC[C@@]3(C(=O)Nc4ccccc43)[C@@H]2C[C@@H]1/C(=C\OC)C(=O)OC [ISORHYNCHOPHYLLINE]
metabolised [14]: 22% | bioavailability [15]: 3.3%

CC[C@H]1CN2CC[C@]3(C(=O)Nc4ccccc43)[C@@H]2C[C@@H]1/C(=C\OC)C(=O)OC [RHYNCHOPHYLLINE]
EC50 [16]: 45.3 µM | metabolised [14]: 22% | bioavailability [15]: 25.9%

COC(=O)[C@H]1C(=O)N2CC[C@]3(C(=O)Nc4ccccc43)[C@H]2C[C@@H]1c1ccc(-c2cccc(Cl)c2)o1
Activity [10]: 47%

Oc1cc(O)c2c(c1)O[C@H](c1ccc(O)c(O)c1)[C@H](O)[C@H]2c1c(O)cc(O)c2c1O[C@H](c1ccc(O)c(O)c1)[C@H](O)C2 [PROCYANIDIN B2]
inhibition [17]: 94% | inhibition [18]: 63% | Cmax [19]: 0.16 µM
